Experimental data reported in patent publication US20130236529A1, “COMPOSITION AND METHODS TO ENHANCE ANTI-OXIDATION, GUT FLORA AND IMMUNITY IN PETS” (FLAVITPURE, INC., priority 2012, published 2013).

How the values were obtained:
NQO1 = conditions: microarray, in the presence of taxifolin; cited from earlier work
[1] = tested on: human lung embryonic fibroblasts (TIG-1); conditions: TIG-1 cells; cited from earlier work
[2] = ORAC hydro antioxidant capacity assay
Description: The majority of HAT-based assays apply a competitive reaction scheme, in which antioxidant and substrate compete for thermally generated peroxyl radicals through the decomposition of azo compounds. ORAC is an assay for the […] oxygen radical absorbance capacity. The ORAC hydro tests the capacity dihydroquercetin generated hydrogen atom transfer (HAT) to compete for thermally generated peroxyl radicals and hydroxyl radicals. For the latter it is necessary to use the ORAC assay test. Unlike electron transfer based assays that measure an antioxidant's reducing capacity, and the hat-based assays measure the hydrogen atom donating capacity. The hydrogen atom transfer is a key step in the radical chain reaction. Therefore, the hat-based assays are more relevant to the radical chain-breaking antioxidant capacity. Among all the hat-based assays, ORAC adopted an AUC (area under curve) technique to quantify antioxidant capacity. […] This approach unifies the lag time method and initial rate method, and it is particularly useful for food samples, which often contain multiple ingredients and have complex reaction kinetics. Therefore, the ORAC assay has been broadly applied in academics and the food and supplement industry as the method of choice to quantify antioxidant capacity. […]

[3] = tested on: umbilical vein endothelial (HUVE) cells; conditions: cited from earlier work
[4] = relative to quercetin; cited from earlier work
[5] = oxidation of 2′-deoxyguanosine, Fenton reaction catalyzed by copper; cited from earlier work
CYP2E1 = conditions: microarray, in the presence of taxifolin; cited from earlier work
GSTM1 = conditions: microarray, in the presence of taxifolin; cited from earlier work

Row | Compound | expression of phase II detoxification enzyme NQO1 (NQO1) | 50% lethal concentration [1] [µmol] | orachydro value ([2]; per 420 mg capsule) | orachydro value ([2]; per gram) | 50% lethal concentration [3] [µmol] | times less mutagenic than quercetin [4] [times] | pro-oxidant activity [5] | expression of phase I detoxification enzyme CYP2E1 (CYP2E1) | expression of phase II detoxification enzyme GSTM1 (GSTM1)
1 | O=C1c2c(O)cc(O)cc2O[C@H](c2ccc(O)c(O)c2)[C@H]1O [Dihydroquercetin] | upregulated | > 300 | ≥ 300 micromole of trolox equivalent per 420 mg capsule | ≥ 800 micromole trolox equivalent per gram | > 200 | 400 | did not present pro-oxidant activity | down regulated | upregulated
2 | catechin [reference compound] | – | – | – | – | – | – | did not present pro-oxidant activity | – | –
